The text below walks through data of patent US7393951B2, “Antisense oligonucleotide having anticancerous activity” (Good Will Okinawa Co., Ltd., priority 2004, dated 2008).

Data set [1] relates to HeLa cells. Kind of data set: Influence on DNA synthesis of cells, incorporation of [3H]-methylthymidine. It is filed as cell-based, human. As to conditions: for incorporation ratio of [3H]-methylthymidine into the human cancer cells to the control: HeLa, 0.1% FCS, 24 hours. The protocol: The influence of each oligo on DNA synthesis of cells was examined by observing the incorporation of [^3H]-methylthymidine into cells. Specifically, the cells were cultured for 24 hours in the same manner as described above, and then the culture solution was exchanged with a culture solution containing each oligo at a concentration of 5, 10 or 20 μM and 0.1% FCS. After 18 hours, 1 μCi/mL [^3H]-methylthymidine was added to the culture solution, and the cells were cultured for another 6 hours. After culture, the specific radioactivity of the cells after predetermined treatment was determined with a liquid scintillation counter.

The test system of data set [2] is HeLa cells. Nature of the data set: Influence on growth of HeLa human cancer cells, modified MTT method (WST-1 + 1-methoxy PMS). It is filed as cell-based. The protocol:
The influence of each oligo on cell growth was examined. Specifically, HeLa cells, which are human cancer cells in a DMEM medium containing 10% heat-inactivated fetal calf serum (FCS), were seeded at a density of 1500 cells/well in a 96-well plate. After culture for 24 hours, the culture solution was exchanged with a culture solution containing each oligo at a concentration of 10 μM and 1% FCS. The cells were cultured at 37° C. in the presence of CO2. Thereafter, the ratio of living cells [survival ratio of cells (%)] was examined over 4 days at 24-hour intervals (absorbance: 450 to 650 nm) by a modified MTT method (WST-1+1-methoxy PMS) using a cell counting kit (manufactured by DOJINDO). Here, a culture solution exchanged with a culture solution not containing any oligo was used as a control (this applies hereinafter).
Then, an experiment was conducted in a similar manner, setting the concentration of the oligo 3 in the culture solutions at 2.5, 5, 10 and 20 μM respectively, to examine the relationship between the inhibition of growth of human cancer cells and the concentration.

In data set [3] the test system is HeLa cells. Kind of data set: Induction of cell death of human cancer cells, microscopy and Giemsa staining. As to conditions: 20 μM. It is filed as cell-based. On the procedure:
Further, the induction of cell death of the human cancer cells by the oligo 3 was examined. Specifically, 3,000 HeLa cells were seeded in a slide chamber. After culture for 24 hours, the culture solution was exchanged with a culture solution containing the oligo 3 at a concentration of 20 μM. […] Furthermore, 24 hours after addition of the oligo 3, the cells were washed with phosphate buffered saline (PBS) and then subjected to Giemsa staining to determine the numbers of living cells and dead cells, and the survival ratio of the cells (%) was determined from the obtained numbers of the cells. Here, the oligo 5 was used additionally as a control.

A short description of data set [4]: Toxicity in mice after intravenous administration (body weight, symptoms). Type of data set: in vivo. The following applies: female mice, 20 μg per g of the body weight. On the procedure:
The toxicity of the oligo 3 was examined. Specifically, the oligo 3 was dissolved in a physiological saline so as to have a concentration of 1 mg/mL and administered intravenously into female mice (5-week-old) in a dose of 20 μg per g of the body weight. On the day of administration (Day 0) and 2, 5, 10, 12 and 14 days after the administration, the weight of each mouse was determined.
FIG. 6 is a graph showing the influence of the oligo 3 on increase of the body weight of the mouse in the case of intravenous administration in a dose of 20 μg/(body weight) g. In the graph, each datum is shown in mean±SE. Here, the data were obtained by using 7 mice for the oligo 3 and 6 mice for the control, respectively.

Regarding “oligo 3: phosphorothioate antisense DNA oligonucleotide CCTCA, to positions 47-51 of 7SL RNA of SRP (SEQ ID NO: 1) (DNA, all phosphorothioate, methylation of C not given here)”, the “incorporation of [3H]-methylthymidine into the cells, compared among oligos 1 to 5” value with HeLa cells [1] (HeLa, 5, 10 or 20 μM) is given as “suppressed to the lowest level”. Also, the “incorporation ratio of [3H]-methylthymidine into the human cancer cells to the control” value is reported as 57.5% with HeLa cells [1] (oligo 5 μM), 32.0% with HeLa cells [1] (oligo 10 μM) and 16.6% in the data set on HeLa cells [1] (oligo 20 μM). The “inhibitory effect on growth of the human cancer cells, compared among oligos 1 to 5” value in the data set with HeLa cells [2] (HeLa, 10 μM, over 4 days) is given as “highest inhibitory effect”. For the same substance, the “concentration dependence of inhibition of growth of human cancer cells” value in the data set with HeLa cells [2] (HeLa, 2.5, 5, 10 and 20 μM) is “increased in proportion to the concentration”. Besides, the “survival ratio of the cells to the control” value is reported as 44.4% with HeLa cells [2] (HeLa, concentration series 2.5, 5, 10 and 20 μM (concentration of these values not given), Day 1); 45.1% in the data set on HeLa cells [2] (HeLa, concentration series 2.5, 5, 10 and 20 μM (concentration of these values not given), Day 2); 55.5% with HeLa cells [2] (HeLa, concentration series 2.5, 5, 10 and 20 μM (concentration of these values not given), Day 3); 63.8% in the data set with HeLa cells [2] (HeLa, concentration series 2.5, 5, 10 and 20 μM (concentration of these values not given), Day 4); 49.6% in the data set with HeLa cells [2] (HeLa, oligo 10 μM, 1% FCS, Day 1); 62.7% with HeLa cells [2] (HeLa, oligo 10 μM, 1% FCS, Day 2). The “survival ratio of the cells to the control” value came out at 71.6% in the data set on HeLa cells [2] (HeLa, oligo 10 μM, 1% FCS, Day 3) and 71.1% in the data set with HeLa cells [2] (HeLa, oligo 10 μM, 1% FCS, Day 4). The “survival ratio of the cells (living vs dead cells, Giemsa staining)” value in the data set with HeLa cells [3] (24 hours after addition) amounted to 30.8%. Besides, the “microscopic observation of cultured cells” value with HeLa cells [3] (about 18 hours after addition) is given as “a process of from shrinkage of cells to cell death was observed”. In addition, the “generation of symptoms versus control” value in data set [4] is reported as “not recognized”. In data set [4], the toxicity result is given as “does not exhibit toxicity particularly”. Besides, in data set [4] (Day 0 to 14), the “influence on increase of the body weight versus control” value is “no difference between the oligo 3 and the control”.
